Paper PMC12274840 (The Journal of Biological Chemistry, 2025)
Values after ≈ are worked out from the molar mass of the structure shown. Where two headings read alike, the source gives them in different places.

What was measured:
[1] = test system: E. coli KA797 cells carrying KPC-2 position 105 library; assay type: cell-based; conditions: selection with labelled antibiotic
[2] = test system: E. coli KA797 cells carrying pUK21 with BlaC WT (Tat); assay: microbe, parasite or virus in culture; assay type: cell-based; conditions: Escherichia coli, antibiotic alone
BlaC WT = molecular target: T1, BlaC WT (Mycobacterium tuberculosis, UniProt P9WKD3); assay type: biochemical; conditions: pH 6.4
T1 construct: correspond to residue numbers 41-307 of BlaC (Uniprot entry P9WKD3-1); His tag with TEV cleavage site (N); made in house; host or cells: E. coli BL21 (DE3) pLysS

[3] = test system: E. coli KA797 cells carrying TEM-1 position 105 library; assay type: cell-based; conditions: for Fi AMP AVG: average of replicates
[4] = test system: E. coli KA797 cells carrying pUK21 with NmcA (pelB/Sec); assay: microbe, parasite or virus in culture; assay type: cell-based; conditions: Escherichia coli, antibiotic alone
TEM-1 WT = TEM-1 WT (Escherichia coli, UniProt P62593)
[5] = test system: E. coli KA797 cells carrying pUK21 with KPC-2 (Tat); assay: microbe, parasite or virus in culture; assay type: cell-based; conditions: Escherichia coli, antibiotic alone
[6] = test system: E. coli KA797 cells carrying pUK21 vector without the β-lactamase gene; assay: microbe, parasite or virus in culture; assay type: cell-based; conditions: Escherichia coli; antibiotic alone; pUK21 without β-lactamase gene; read-out: MIC
[7] = test system: E. coli KA797 cells carrying pUK21 with TEM-1 WT (Sec); assay: microbe, parasite or virus in culture; assay type: cell-based; conditions: Escherichia coli, antibiotic alone
CTX-M-14 Y105G = molecular target: T2, CTX-M-14 Y105G (Escherichia coli, UniProt Q9L5C7, Y108G); assay type: biochemical
T2 construct: 29 to 291 of CTX-M-14 (Q9L5C7); His tag with TEV cleavage site (N); made in house; host or cells: E. coli BL21 (DE3) pLysS

TEM-1 Y105G = TEM-1 Y105G (Escherichia coli, UniProt P62593, Y103G); assay: Steady-state kinetics of substrate hydrolysis, TEM-1 Y105G; assay type: biochemical; conditions: phosphate buffer pH 6.4, 25 °C
[8] = read-out: KM^app, phosphate buffer pH 6.4, 25 °C

`CC1(C)S[C@@H]2[C@H](NC(=O)[C@H](N)c3ccccc3)C(=O)N2[C@H]1C(=O)O` [ampicillin] was tested, and the “Fi AVG (average fitness of replicates)” value ([1]; KPC-2 AA 105 = Ala) was -2.717, the “Fi AVG (average fitness of replicates)” value ([1]; KPC-2 AA 105 = Arg) was -1.311 and the “Significance of average fitness” value ([1]; KPC-2 AA 105 = Arg) was “-”. For the same compound, the “Fi AVG (average fitness of replicates)” value ([1]; KPC-2 AA 105 = Asn) was -2.270, the “Significance of average fitness” value ([1]; KPC-2 AA 105 = Asn) was “-” and the “Fi AVG (average fitness of replicates)” value ([1]; KPC-2 AA 105 = Cys) was -1.421. The “Significance of average fitness” value ([1]; KPC-2 AA 105 = Cys) was “-”, the “Fi AVG (average fitness of replicates)” value ([1]; KPC-2 AA 105 = Gln) was -2.210 and the “Significance of average fitness” value ([1]; KPC-2 AA 105 = Gln) was “-”. The “Fi AVG (average fitness of replicates)” value ([1]; KPC-2 AA 105 = Glu) was -2.582, the “Significance of average fitness” value ([1]; KPC-2 AA 105 = Glu) was “-” and the “Fi AVG (average fitness of replicates)” value ([1]; KPC-2 AA 105 = Gly) was -1.606. For the same compound, the “Significance of average fitness” value ([1]; KPC-2 AA 105 = Gly) was “-”, the “Fi AVG (average fitness of replicates)” value ([1]; KPC-2 AA 105 = His) was -0.658 and the “Fi AVG (average fitness of replicates)” value ([1]; KPC-2 AA 105 = Leu) was -1.411. The “Significance of average fitness” value ([1]; KPC-2 AA 105 = Leu) was “-”, the “Fi AVG (average fitness of replicates)” value ([1]; KPC-2 AA 105 = Met) was -2.639 and the “Significance of average fitness” value ([1]; KPC-2 AA 105 = Met) was “-”. The “Fi AVG (average fitness of replicates)” value ([1]; KPC-2 AA 105 = Phe) was -0.181, the “Fi AVG (average fitness of replicates)” value ([1]; KPC-2 AA 105 = Pro) was -1.601 and the “Significance of average fitness” value ([1]; KPC-2 AA 105 = Pro) was “-”. For the same compound, the “Fi AVG (average fitness of replicates)” value ([1]; KPC-2 AA 105 = Ser) was -2.329, the “Significance of average fitness” value ([1]; KPC-2 AA 105 = Ser) was “-” and the “Fi AVG (average fitness of replicates)” value ([1]; KPC-2 AA 105 = Thr) was -2.338. The “Fi AVG (average fitness of replicates)” value ([1]; KPC-2 AA 105 = Trp (WT, reference)) was 0.000, the “Fi AVG (average fitness of replicates)” value ([1]; KPC-2 AA 105 = Tyr) was -1.608 and the “Significance of average fitness” value ([1]; KPC-2 AA 105 = Tyr) was “-”. For the same compound, the “Fi AVG (average fitness of replicates)” value ([1]; KPC-2 AA 105 = Val) was -2.672, the “Significance of average fitness” value ([1]; KPC-2 AA 105 = Val) was “-” and the “WT abs Fi 1 (absolute fitness)” value ([1]; KPC-2 WT (Trp 105), replicate 1) was 0.183. For the same compound, the “WT abs Fi 2 (absolute fitness)” value ([1]; KPC-2 WT (Trp 105), replicate 2) was 0.061, the “WT abs Fi 3 (absolute fitness)” value ([1]; KPC-2 WT (Trp 105), replicate 3) was 0.422 and the MIC [2] was 50 µg/mL (≈ 143 µM). For the same compound, the kcat (BlaC WT) was 14 ± 2 s⁻¹, the Km (BlaC WT; read-out: KM^app) was 68 ± 3 µM and the “Significance (Average fitnes AMP)” value ([3]; AA 105 Ala) was “-”. The “Fi AMP AVG” value ([3]; AA 105 Ala) was -0.222, the “Fi AMP 1” value ([3]; AA 105 Ala, replicate 1) was -0.205 and the “Fi AMP 2” value ([3]; AA 105 Ala, replicate 2) was -0.239. The “Significance (Average fitnes AMP)” value ([3]; AA 105 Arg) was “-”, the “Fi AMP AVG” value ([3]; AA 105 Arg) was -0.576 and the “Fi AMP 1” value ([3]; AA 105 Arg, replicate 1) was -0.568. The “Fi AMP 2” value ([3]; AA 105 Arg, replicate 2) was -0.584, the “Significance (Average fitnes AMP)” value ([3]; AA 105 Asn) was “-” and the “Fi AMP AVG” value ([3]; AA 105 Asn) was -0.070. For the same compound, the “Fi AMP 1” value ([3]; AA 105 Asn, replicate 1) was -0.049, the “Fi AMP 2” value ([3]; AA 105 Asn, replicate 2) was -0.091 and the “Significance (Average fitnes AMP)” value ([3]; AA 105 Asp) was “-”. For the same compound, the “Fi AMP AVG” value ([3]; AA 105 Asp) was -0.429, the “Fi AMP 1” value ([3]; AA 105 Asp, replicate 1) was -0.401 and the “Fi AMP 2” value ([3]; AA 105 Asp, replicate 2) was -0.457. The “Significance (Average fitnes AMP)” value ([3]; AA 105 Cys) was “-”, the “Fi AMP AVG” value ([3]; AA 105 Cys) was -0.587 and the “Fi AMP 1” value ([3]; AA 105 Cys, replicate 1) was -0.602. For the same compound, the “Fi AMP 2” value ([3]; AA 105 Cys, replicate 2) was -0.572, the “Significance (Average fitnes AMP)” value ([3]; AA 105 Gln) was “-” and the “Fi AMP AVG” value ([3]; AA 105 Gln) was -0.282. For the same compound, the “Fi AMP 1” value ([3]; AA 105 Gln, replicate 1) was -0.271, the “Fi AMP 2” value ([3]; AA 105 Gln, replicate 2) was -0.293 and the “Significance (Average fitnes AMP)” value ([3]; AA 105 Glu) was “-”. The “Fi AMP AVG” value ([3]; AA 105 Glu) was -0.667, the “Fi AMP 1” value ([3]; AA 105 Glu, replicate 1) was -0.663 and the “Fi AMP 2” value ([3]; AA 105 Glu, replicate 2) was -0.672. The “Significance (Average fitnes AMP)” value ([3]; AA 105 Gly) was “-”, the “Fi AMP AVG” value ([3]; AA 105 Gly) was -0.061 and the “Fi AMP 1” value ([3]; AA 105 Gly, replicate 1) was -0.036. The “Fi AMP 2” value ([3]; AA 105 Gly, replicate 2) was -0.087, the “Significance (Average fitnes AMP)” value ([3]; AA 105 His) was “-” and the “Fi AMP AVG” value ([3]; AA 105 His) was -0.071. For the same compound, the “Fi AMP 1” value ([3]; AA 105 His, replicate 1) was -0.065, the “Fi AMP 2” value ([3]; AA 105 His, replicate 2) was -0.077 and the “Significance (Average fitnes AMP)” value ([3]; AA 105 Ile) was “-”. For the same compound, the “Fi AMP AVG” value ([3]; AA 105 Ile) was -0.580, the “Fi AMP 1” value ([3]; AA 105 Ile, replicate 1) was -0.558 and the “Fi AMP 2” value ([3]; AA 105 Ile, replicate 2) was -0.602. For the same compound, the “Significance (Average fitnes AMP)” value ([3]; AA 105 Leu) was “-”, the “Fi AMP AVG” value ([3]; AA 105 Leu) was -0.490 and the “Fi AMP 1” value ([3]; AA 105 Leu, replicate 1) was -0.459. The “Fi AMP 2” value ([3]; AA 105 Leu, replicate 2) was -0.521, the “Significance (Average fitnes AMP)” value ([3]; AA 105 Lys) was “-” and the “Fi AMP AVG” value ([3]; AA 105 Lys) was -0.754. The “Fi AMP 1” value ([3]; AA 105 Lys, replicate 1) was -0.749, the “Fi AMP 2” value ([3]; AA 105 Lys, replicate 2) was -0.759 and the “Significance (Average fitnes AMP)” value ([3]; AA 105 Met) was “-”. The “Fi AMP AVG” value ([3]; AA 105 Met) was -0.188, the “Fi AMP 1” value ([3]; AA 105 Met, replicate 1) was -0.138 and the “Fi AMP 2” value ([3]; AA 105 Met, replicate 2) was -0.238. For the same compound, the “Significance (Average fitnes AMP)” value ([3]; AA 105 Phe) was “-”, the “Fi AMP AVG” value ([3]; AA 105 Phe) was -0.048 and the “Fi AMP 1” value ([3]; AA 105 Phe, replicate 1) was -0.041. For the same compound, the “Fi AMP 2” value ([3]; AA 105 Phe, replicate 2) was -0.054, the “Significance (Average fitnes AMP)” value ([3]; AA 105 Pro) was “-” and the “Fi AMP AVG” value ([3]; AA 105 Pro) was -0.152. The “Fi AMP 1” value ([3]; AA 105 Pro, replicate 1) was -0.157, the “Fi AMP 2” value ([3]; AA 105 Pro, replicate 2) was -0.147 and the “Significance (Average fitnes AMP)” value ([3]; AA 105 Ser) was “-”. The “Fi AMP AVG” value ([3]; AA 105 Ser) was -0.203, the “Fi AMP 1” value ([3]; AA 105 Ser, replicate 1) was -0.219 and the “Fi AMP 2” value ([3]; AA 105 Ser, replicate 2) was -0.186. The “Significance (Average fitnes AMP)” value ([3]; AA 105 Thr) was “-”, the “Fi AMP AVG” value ([3]; AA 105 Thr) was -0.391 and the “Fi AMP 1” value ([3]; AA 105 Thr, replicate 1) was -0.402. The “Fi AMP 2” value ([3]; AA 105 Thr, replicate 2) was -0.379, the “Fi AMP AVG” value ([3]; AA 105 Trp) was 0.019 and the “Fi AMP 1” value ([3]; AA 105 Trp, replicate 1) was 0.033. The “Fi AMP 2” value ([3]; AA 105 Trp, replicate 2) was 0.006, the “Fi AMP AVG” value ([3]; AA 105 Tyr) was 0.000 and the “Fi AMP 1” value ([3]; AA 105 Tyr, replicate 1) was 0.000. The “Fi AMP 2” value ([3]; AA 105 Tyr, replicate 2) was 0.000, the “Significance (Average fitnes AMP)” value ([3]; AA 105 Val) was “-” and the “Fi AMP AVG” value ([3]; AA 105 Val) was -0.403. The “Fi AMP 1” value ([3]; AA 105 Val, replicate 1) was -0.371, the “Fi AMP 2” value ([3]; AA 105 Val, replicate 2) was -0.435 and the “WT abs Fi 1” value ([3]; absolute fitness of TEM-1 WT, AMP, replicate 1) was 0.351. For the same compound, the “WT abs Fi 2” value ([3]; absolute fitness of TEM-1 WT, AMP, replicate 2) was 0.374, the MIC [4] was 400 µg/mL (≈ 1140 µM) and the kcat (TEM-1 WT; phosphate buffer pH 6.4, 25 °C) was 2359 ± 16 s⁻¹. It also gave a Km (TEM-1 WT; [8]) of 72 ± 1 µM, an MIC [5] of 200 µg/mL (≈ 572 µM) and an MIC [6] of 10 µg/mL (≈ 28.6 µM). The MIC [7] was 12800 µg/mL (≈ 36600 µM), the kcat (CTX-M-14 Y105G; phosphate buffer pH 6.4, 25 °C) was 48 ± 2 s⁻¹ and the Km (CTX-M-14 Y105G; [8]) was 297 ± 10 µM. For the same compound, the kcat (TEM-1 Y105G) was 601 ± 9 s⁻¹.
